# Laboratory results taken from ChEMBL document CHEMBL1129912, “Functionalized azoles and triazolo[1,5-a]pyrimidines as latent leishmanicides” (Bioorg Med Chem Lett, 1997).
# pIC50: −log10 of the molar value.
# Experiments:
# Leishmania donovani [1] = experiment: The in vitro leishmanicidal activity by measuring the 3H thymidine incorporation in promastigotes of Leishmania donovani at 200 uM concentration; type: functional
# Leishmania donovani [2] = experiment: The in vitro leishmanicidal activity by measuring the 3H thymidine incorporation in promastigotes of Leishmania donovani; type: functional, organism-based
# Leishmania donovani [3] = experiment: The in vitro leishmanicidal activity by measuring the 3H thymidine incorporation in promastigotes of Leishmania donovani at 100 uM concentration; type: functional
SMILES,Growth inhibition (Leishmania donovani [1]) [%],pIC50 (Leishmania donovani [2]),Growth inhibition (Leishmania donovani [3]) [%]
Cc1cc(O)n2nc(NS(=O)(=O)c3ccc(Cl)cc3)nc2n1,5,–,–
Nc1n[nH]c(NS(=O)(=O)c2ccccc2)n1,97,5.70,–
O=S(=O)(Nc1nc2nc3c(c(O)n2n1)CCC3)c1ccc(Cl)cc1,15,–,–
N#Cc1cnc2nc(NS(=O)(=O)c3ccc(Cl)cc3)nn2c1N,0,–,–
O=S(=O)(Nc1nc2nc(-c3ccccc3)cc(-c3ccccc3)n2n1)c1ccc(Cl)cc1,98,5.70,–
Cc1ccc2nc(NS(=O)(=O)c3ccc(N)cc3)oc2c1,92.6,4.81,–
Cc1ccc(S(=O)(=O)Nc2nc3nc(C)cc(C)n3n2)cc1,100,5.82,–
Nc1ccc(S(=O)(=O)Nc2nc3ccccc3o2)cc1,74,5.19,–
Nc1ccc(S(=O)(=O)Nc2nc3ccccc3[nH]2)cc1,80,4.98,–
CCOC(=O)c1cnc2nc(NS(=O)(=O)c3ccc(Cl)cc3)nn2c1O,0,–,–
CCOC(=O)c1cnc2nc(NS(=O)(=O)c3ccc(Cl)cc3)nn2c1N,0,–,–
Cc1ccc(S(=O)(=O)Nc2nc3nc(-c4ccccc4)cc(O)n3n2)cc1,100,5.70,–
CSc1nc2nc(NS(=O)(=O)c3ccc(Cl)cc3)nn2c(N)c1C#N,17,–,–
Cc1cc(C)n2nc(NS(=O)(=O)c3ccc(Cl)cc3)nc2n1,3,–,–
N=C(N)c1ccc(OCCCCCOc2ccc(C(=N)N)cc2)cc1 [PENTAMIDINE],–,6.12,100
